Assay results published in patent publication US10112943B2, “Substituted imidazoles as gamma secretase modulators” (Janssen Pharmaceutica NV, priority 2012, dated 2018).

Key:
γ-secretase [1] = target: T1, γ-secretase (Homo sapiens, UniProt P49768); experiment: Screening for γ-secretase-modulating activity: Aβ42 in cell supernatant (Alphalisa sandwich immuno-assay); format: cell-based; details: SKNBE2 human neuroblastoma cells carrying hAPP 695-wild type, overnight incubation
T1 construct: endogenous in cells; host or cells: SKNBE2 human neuroblastoma cells carrying hAPP 695 wild type
Protocol: (§1) A) Screening of the Compounds of the Invention for γ-Secretase-Modulating Activity
(§2) Screening was carried out using SKNBE2 human neuroblastoma cells carrying the hAPP 695-wild type, grown in Dulbecco's Modified Eagle's Medium/Nutrient mixture F-12 (DMEM/NUT-mix F-12) (HAM) provided by Invitrogen (cat no. 10371-029) containing 5% Serum/Fe supplemented with 1% non-essential amino acids, 1-glutamine 2 mM, Hepes 15 mM, penicillin 50 U/ml (units/ml) and streptomycin 50 μg/ml. Cells were grown to near confluency.
(§3) The screening was performed using a modification of the assay as described in Citron et al (1997) Nature Medicine 3: 67. Briefly, cells were plated in a 384-well plate at 10^4 cells/well in Ultraculture (Lonza, BE12-725F) supplemented with 1% glutamine (Invitrogen, 25030-024), 1% non-essential amino acid (NEAA), penicillin 50 U/ml en streptomycin 50 μg/ml in the presence of test compound at different test concentrations. The cell/compound mixture was incubated overnight at 37° C., 5% CO2. The next day the media were assayed by two sandwich immuno-assays, for Aβ42 and Aβtotal.
(§4) Aβtotal and Aβ42 concentrations were quantified in the cell supernatant using the Aphalisa technology (Perkin Elmer). Alphalisa is a sandwich assay using biotinylated antibody attached to streptavidin coated donorbeads and antibody conjugated to acceptor beads. In the presence of antigen, the beads come into close proximity. The excitation of the donor beads provokes the release of singlet oxygen molecules that trigger a cascade of energy transfer in the acceptor beads, resulting in light emission. To quantify the amount of Aβ42 in the cell supernatant, monoclonal antibody specific to the C-terminus of Aβ42 (JRF/cAβ42/26) was coupled to the receptor beads and biotinylated antibody specific to the N-terminus of Aβ (JRF/AβN/25) was used to react with the donor beads. To quantify the amount of Aβtotal in the cell supernatant, monoclonal antibody specific to the N-terminus of Aβ (JRF/AβN/25) was coupled to the receptor beads and biotinylated antibody specific to the mid region of Aβ (biotinylated 4G8) was used to react with the donor beads.
To obtain the values reported in Table 3, the data are calculated as percentage of the maximum amount of amyloid Beta 42 measured in the absence of the test compound.
(§5) The sigmoidal dose response curves were analyzed using non-linear regression analysis with percentage of the control plotted against the log concentration of the compound. A 4-parameter equation was used to determine the IC50.

γ-secretase [2] = target: T1, γ-secretase; experiment: Screening for γ-secretase-modulating activity: Aβtotal in cell supernatant (Alphalisa sandwich immuno-assay); format: cell-based; details: SKNBE2 human neuroblastoma cells carrying hAPP 695-wild type, overnight incubation
Protocol: as §1, §2, §3, §4, §5

Row | Structure (SMILES) | IC50 (γ-secretase [1]) | IC50 (γ-secretase [2]) | melting point
1 | Cc1cn(-c2ccc3n(c2=O)C[C@@H]2CC[C@@H](Cc4cc(C(F)(F)F)cc(C(F)(F)F)c4)N2C3=O)cn1 (single isomer, unassigned) [Compound 2, 3-[[3,5-bis(trifluoromethyl)phenyl]methyl]-2,3,11,11a-tetrahydro-8-(4-methyl-1H-imidazol-1-yl)-1H-pyrido[1,2-a]pyrrolo[1,2-d]pyrazine-5,9-dione ((3R, 11aR) or (3S, 11aS))] | > 10 µM | > 10 µM | 255.25 °C
2 | Cc1cn(-c2ccc3n(c2=O)C[C@@H]2CC[C@H](Cc4cc(C(F)(F)F)cc(C(F)(F)F)c4)N2C3=O)cn1 (single isomer, unassigned) [Compound 3, 3-[[3,5-bis(trifluoromethyl)phenyl]methyl]-2,3,11,11a-tetrahydro-8-(4-methyl-1H-imidazol-1-yl)-1H-pyrido[1,2-a]pyrrolo[1,2-d]pyrazine-5,9-dione ((3S, 11aR) or (3R, 11aS))] | 0.42 µM | > 10 µM | 241.17 °C
3 | Cc1cn(-c2ccc3n(c2=O)C[C@@H]2CCC[C@@H](Cc4cc(C(F)(F)F)cc(C(F)(F)F)c4)N2C3=O)cn1 (single isomer, unassigned) [Compound 7, 10-[[3,5-bis(trifluoromethyl)phenyl]methyl]-6,6a,7,8,9,10-hexahydro-3-(4-methyl-1H-imidazol-1-yl)-dipyrido[1,2-a:1′,2′-d]pyrazine-4,12-dione ((6aR, 10R) or (6aS, 10S))] | 1.12 µM | > 10 µM | 231.07 °C
4 | Cc1cn(-c2ccc3n(c2=O)C[C@@H]2CCC[C@H](Cc4cc(C(F)(F)F)cc(C(F)(F)F)c4)N2C3=O)cn1 (single isomer, unassigned) [Compound 9, 10-[[3,5-bis(trifluoromethyl)phenyl]methyl]-6,6a,7,8,9,10-hexahydro-3-(4-methyl-1H-imidazol-1-yl)-dipyrido[1,2-a:1′,2-d]pyrazine-4,12-dione ((6aR, 10S) or (6aS, 10R))] | 0.29 µM | > 10 µM | 246.53 °C
5 | Cc1cn(-c2ccc3n(c2=O)C[C@@H]2CCC[C@@H](Cc4cc(C(F)(F)F)cc(C(F)(F)F)c4)N2C3=O)cn1 (single isomer, unassigned) [Compound 10, 10-[[3,5-bis(trifluoromethyl)phenyl]methyl]-6,6a,7,8,9,10-hexahydro-3-(4-methyl-1H-imidazol-1-yl)-dipyrido[1,2-a:1′,2-d]pyrazine-4,12-dione ((6aS, 10S) or (6aR, 10R))] | 0.13 µM | 3.16 µM | 231.74 °C
6 | Cc1cn(-c2ccc3n(c2=O)C[C@H]2CC[C@H](c4cc(C(F)(F)F)cc(C(F)(F)F)c4)N2C3=O)cn1 [Compound 15, (3R,11aR)-3-[3,5-bis(trifluoromethyl)phenyl]-2,3,11,11a-tetrahydro-8-(4-methyl-1H-imidazol-1-yl)-1H-pyrido[1,2-a]pyrrolo[1,2-d]pyrazine-5,9-dione] | 4.57 µM | > 10 µM | 
7 | Cc1cn(-c2ccc3n(c2=O)C[C@@H]2CC[C@@H](c4cc(C(F)(F)F)cc(C(F)(F)F)c4)N2C3=O)cn1 [Compound 16, (3S,11aS)-3-[3,5-bis(trifluoromethyl)phenyl]-2,3,11,11a-tetrahydro-8-(4-methyl-1H-imidazol-1-yl)-1H-pyrido[1,2-a]pyrrolo[1,2-d]pyrazine-5,9-dione] | 0.19 µM | > 10 µM | 
8 | Cc1cn(-c2ccc3n(c2=O)C[C@H]2CC[C@H](c4ccc(Cl)c(Cl)c4)N2C3=O)cn1 [Compound 20, (3R,11aR)-3-(3,4-dichlorophenyl)-2,3,11,11a-tetrahydro-8-(4-methyl-1H-imidazol-1-yl)-1H-pyrido[1,2-a]pyrrolo[1,2-d]pyrazine-5,9-dione] | 4.47 µM | 9.33 µM | 
9 | Cc1cn(-c2ccc3n(c2=O)C[C@H]2CC[C@@H](c4ccc(Cl)c(Cl)c4)N2C3=O)cn1 [Compound 21, (3S,11aR)-3-(3,4-dichlorophenyl)-2,3,11,11a-tetrahydro-8-(4-methyl-1H-imidazol-1-yl)-1H-pyrido[1,2-a]pyrrolo[1,2-d]pyrazine-5,9-dione] | 1.32 µM | > 15.1 µM | 

Next, values leading:

Row | IC50 (γ-secretase [1]) | IC50 (γ-secretase [2]) | melting point | Structure (SMILES)
10 | 0.98 µM | > 10 µM | 238.34 °C | Cc1cn(-c2ccc3n(c2=O)C[C@@H]2CC[C@H](Cc4cc(C(F)(F)F)cc(C(F)(F)F)c4)N2C3=O)cn1 (single isomer, unassigned) [Compound 5, 3-[[3,5-bis(trifluoromethyl)phenyl]methyl]-2,3,11,11a-tetrahydro-8-(4-methyl-1H-imidazol-1-yl)-1H-pyrido[1,2-a]pyrrolo[1,2-d]pyrazine-5,9-dione ((3R, 11aS) or (3S, 11aR))]
11 | 0.11 µM | > 10 µM | 247.06 °C | Cc1cn(-c2ccc3n(c2=O)C[C@@H]2CCC[C@H](Cc4cc(C(F)(F)F)cc(C(F)(F)F)c4)N2C3=O)cn1 (single isomer, unassigned) [Compound 8, 10-[[3,5-bis(trifluoromethyl)phenyl]methyl]-6,6a,7,8,9,10-hexahydro-3-(4-methyl-1H-imidazol-1-yl)-dipyrido[1,2-a:1′,2-d]pyrazine-4,12-dione ((6aS, 10R) or (6aR, 10S))]
12 | 0.24 µM | > 10 µM |  | Cc1cn(-c2ccc3n(c2=O)C[C@@H]2CCC[C@H](c4cc(C(F)(F)F)cc(C(F)(F)F)c4)N2C3=O)cn1 (single isomer, unassigned) [Compound 12, 10-[3,5-bis(trifluoromethyl)phenyl]-6,6a,7,8,9,10-hexahydro-3-(4-methyl-1H-imidazol-1-yl)-dipyrido[1,2-a: 1′,2′-d]pyrazine-4,12-dione ((6aR, 10S) or (6aS, 10R))]
13 | > 10 µM |  |  | Cc1cn(-c2ccc3n(c2=O)C[C@@H]2CCC[C@H](c4cc(C(F)(F)F)cc(C(F)(F)F)c4)N2C3=O)cn1 (single isomer, unassigned) [Compound 13, 10-[3,5-bis(trifluoromethyl)phenyl]-6,6a,7,8,9,10-hexahydro-3-(4-methyl-1H-imidazol-1-yl)-dipyrido[1,2-a: 1′,2′-d]pyrazine-4,12-dione ((6aS, 10R) or (6aR, 10S)]
14 | 0.16 µM | > 10 µM | 234.89 °C | Cc1cn(-c2ccc3n(c2=O)CC2CCC(Cc4cc(C(F)(F)F)cc(C(F)(F)F)c4)N2C3=O)cn1 (stereo not drawn) [Compound 1, 3-[[3,5-bis(trifluoromethyl)phenyl]methyl]-2,3,11,11a-tetrahydro-8-(4-methyl-1H-imidazol-1-yl)-1H-pyrido[1,2-a]pyrrolo[1,2-d]pyrazine-5,9-dione]
15 | > 10 µM | > 10 µM |  | Cc1cn(-c2ccc3n(c2=O)C[C@@H]2CC[C@H](c4cc(C(F)(F)F)cc(C(F)(F)F)c4)N2C3=O)cn1 [Compound 18, (3R,11aS)-3-[3,5-bis(trifluoromethyl)phenyl]-2,3,11,11a-tetrahydro-8-(4-methyl-1H-imidazol-1-yl)-1H-pyrido[1,2-a]pyrrolo[1,2-d]pyrazine-5,9-dione]
16 | 0.72 µM | > 10 µM |  | Cc1cn(-c2ccc3n(c2=O)C[C@H]2CC[C@@H](c4cc(C(F)(F)F)cc(C(F)(F)F)c4)N2C3=O)cn1 [Compound 19, (3S,11aR)-3-[3,5-bis(trifluoromethyl)phenyl]-2,3,11,11a-tetrahydro-8-(4-methyl-1H-imidazol-1-yl)-1H-pyrido[1,2-a]pyrrolo[1,2-d]pyrazine-5,9-dione]
